Patent publication US12581252B2, “Substituted pyrrolo[3,4-b]pyridines as PI3K-α inhibitors” (Relay Therapeutics, Inc., priority 2020, dated 2026)

How the values were obtained:
H1047R PIK3CA enzyme = H1047R PIK3CA enzyme (Homo sapiens, UniProt P42336, H1047R); experiment: ADP-Glo Biochemical PIK3CA Kinase Assay
cells = conditions: Homo sapiens, MCF-10A, read-out: MCF10A IC50

H1047R PIK3CA enzyme, sequence (P42336 whole entry H1047R): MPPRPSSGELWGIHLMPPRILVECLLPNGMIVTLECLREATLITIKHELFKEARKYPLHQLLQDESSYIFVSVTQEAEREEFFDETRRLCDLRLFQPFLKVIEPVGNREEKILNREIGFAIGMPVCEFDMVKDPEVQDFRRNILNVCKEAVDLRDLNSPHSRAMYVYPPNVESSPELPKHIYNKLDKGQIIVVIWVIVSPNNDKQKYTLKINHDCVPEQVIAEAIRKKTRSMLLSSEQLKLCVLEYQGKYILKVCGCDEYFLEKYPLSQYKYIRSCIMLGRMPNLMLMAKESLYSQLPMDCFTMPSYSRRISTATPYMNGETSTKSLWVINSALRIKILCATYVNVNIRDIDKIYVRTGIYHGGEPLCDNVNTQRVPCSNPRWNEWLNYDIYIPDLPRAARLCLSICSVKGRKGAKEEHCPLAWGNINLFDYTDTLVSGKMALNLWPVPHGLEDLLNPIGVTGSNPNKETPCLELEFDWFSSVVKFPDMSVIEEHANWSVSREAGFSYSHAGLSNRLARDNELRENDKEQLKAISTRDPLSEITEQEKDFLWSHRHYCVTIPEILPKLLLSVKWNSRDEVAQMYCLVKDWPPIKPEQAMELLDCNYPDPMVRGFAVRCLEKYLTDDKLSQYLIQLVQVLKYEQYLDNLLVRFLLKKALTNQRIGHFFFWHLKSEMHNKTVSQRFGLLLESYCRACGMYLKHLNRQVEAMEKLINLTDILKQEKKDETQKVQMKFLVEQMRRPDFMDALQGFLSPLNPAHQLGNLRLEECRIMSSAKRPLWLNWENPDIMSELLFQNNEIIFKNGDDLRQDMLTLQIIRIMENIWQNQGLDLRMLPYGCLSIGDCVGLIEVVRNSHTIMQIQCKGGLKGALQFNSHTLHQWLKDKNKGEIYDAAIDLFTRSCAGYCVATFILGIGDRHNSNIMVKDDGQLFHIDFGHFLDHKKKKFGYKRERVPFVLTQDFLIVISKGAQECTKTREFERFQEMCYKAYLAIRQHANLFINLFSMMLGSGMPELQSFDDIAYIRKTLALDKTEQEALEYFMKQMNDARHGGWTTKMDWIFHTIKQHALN
H1047R PIK3CA enzyme, sequence (P27986 whole entry partner): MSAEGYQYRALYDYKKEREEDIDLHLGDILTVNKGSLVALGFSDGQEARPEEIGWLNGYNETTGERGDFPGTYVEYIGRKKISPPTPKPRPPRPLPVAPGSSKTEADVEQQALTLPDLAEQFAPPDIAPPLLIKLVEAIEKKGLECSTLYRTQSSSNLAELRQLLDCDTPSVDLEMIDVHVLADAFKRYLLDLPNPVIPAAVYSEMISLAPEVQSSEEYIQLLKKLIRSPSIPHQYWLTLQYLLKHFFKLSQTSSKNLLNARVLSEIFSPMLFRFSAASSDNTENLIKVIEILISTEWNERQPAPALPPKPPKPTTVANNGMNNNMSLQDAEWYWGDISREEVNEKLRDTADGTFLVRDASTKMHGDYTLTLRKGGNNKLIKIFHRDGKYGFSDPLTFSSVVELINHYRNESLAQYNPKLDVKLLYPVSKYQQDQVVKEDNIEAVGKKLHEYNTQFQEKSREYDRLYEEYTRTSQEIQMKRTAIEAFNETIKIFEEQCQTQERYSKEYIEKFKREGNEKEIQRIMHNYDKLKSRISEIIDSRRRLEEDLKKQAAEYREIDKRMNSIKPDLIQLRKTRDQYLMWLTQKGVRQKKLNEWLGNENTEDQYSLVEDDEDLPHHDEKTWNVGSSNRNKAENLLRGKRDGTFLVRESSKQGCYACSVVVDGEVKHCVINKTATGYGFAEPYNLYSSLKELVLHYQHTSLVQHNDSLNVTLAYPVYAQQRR

Structure (SMILES) | IC50 (H1047R PIK3CA enzyme) | IC50 (cells)
O=C1NC(c2cc(F)ccc2Cl)c2c(NC(=O)N3CC(O)(C(F)(F)F)c4cc(F)ccc43)cccc21 (stereo not shown) [Compound I-2474] | ≤ 0.1 µM | 1 to 5 µM
O=C(Nc1cc(Br)cc2c1C(c1cc(F)ccc1Cl)NC2=O)c1cc(F)cc(C(F)(F)F)c1 (stereo not shown) [Compound I-124] | ≤ 0.1 µM | 1 to 5 µM
CC(=O)Nc1cc(NC(=O)N2C[C@](O)(C(F)(F)F)c3cc(F)ccc32)c2c(c1)C(=O)N[C@@H]2c1cc(F)ccc1Cl (single isomer, unassigned) [Compound I-2573] | ≤ 0.1 µM | < 1 µM
CC1(Cc2cc(NC(=O)N3C[C@](O)(C(F)(F)F)c4cc(F)ccc43)c3c(c2)C(=O)N[C@@H]3c2cc(F)ccc2Cl)COC1 (single isomer, unassigned) [Compound I-2657] | ≤ 0.1 µM | < 1 µM
COCc1cc(NC(=O)N2C[C@@](O)(C(F)(F)F)c3cc(F)ccc32)c2c(c1)C(=O)N[C@@H]2c1cc(F)ccc1Cl (single isomer, unassigned) [Compound I-2541] | ≤ 0.1 µM | < 1 µM
Cc1ccccc1C1NC(=O)c2cc(Br)cc(NC(=O)c3cc(F)cc(C(F)(F)F)c3)c21 (stereo not shown) [Compound I-54] | 0.1 to 0.5 µM | 1 to 5 µM
O=C(Nc1cc(-c2cncnc2)cc2c1C(c1cc(F)ccc1Cl)NC2=O)c1cc(F)cc(C(F)(F)F)c1 (stereo not shown) [Compound I-967] | ≤ 0.1 µM | < 1 µM
O=C(Nc1cc(-c2cccc3cnccc23)cc2c1C(c1cc(F)ccc1Cl)NC2=O)c1cc(F)cc(C(F)(F)F)c1 (stereo not shown) [Compound I-902] | ≤ 0.1 µM | < 1 µM
O=C(Nc1cc(-n2ccccc2=O)cc2c1C(c1cc(F)ccc1Cl)NC2=O)c1cc(F)cc(C(F)(F)F)c1 (stereo not shown) [Compound I-2192] | ≤ 0.1 µM | 1 to 5 µM
O=C(Nc1cc(-c2ccc3ncnn3c2)cc2c1[C@H](c1cc(F)ccc1C(F)F)NC2=O)c1cc(F)cc(C(F)(F)F)c1 (stereo in doubt) [Compound I-1056] | ≤ 0.1 µM | < 1 µM
Cn1nccc1Nc1cc(NC(=O)c2cc(F)cc(C(F)(F)F)c2)c2c(c1)C(=O)NC2c1cc(F)ccc1Cl (stereo not shown) [Compound I-922] | ≤ 0.1 µM | < 1 µM
COc1c(F)cccc1-c1cc(NC(=O)c2cc(F)cc(C(F)(F)F)c2)c2c(c1)C(=O)NC2c1cc(F)ccc1Cl (stereo not shown) [Compound I-1156] | ≤ 0.1 µM | < 1 µM
[2H]C1(c2ccccc2C)NC(=O)c2cccc(NC(=O)c3csc4ccccc34)c21 (stereo not shown) [Compound I-25] | ≤ 0.1 µM | 1 to 5 µM
O=C1N[C@H](c2cc(F)ccc2Cl)c2c(NC(=O)N3C[C@@](O)(C(F)(F)F)c4cc(F)ccc43)cc(N3CCCC3=O)cc21 (single isomer, unassigned) [Compound I-2665] | ≤ 0.1 µM | < 1 µM
O=C(Nc1cc(-c2cccc3c2CCNC3=O)cc2c1C(c1cc(F)ccc1Cl)NC2=O)c1cc(F)cc(C(F)(F)F)c1 (stereo not shown) [Compound I-1042] | ≤ 0.1 µM | < 1 µM
CS(=O)(=O)Nc1cc(NC(=O)c2cc(F)cc(C(F)(F)F)c2)c2c(c1)C(=O)NC2c1cc(F)ccc1Cl (stereo not shown) [Compound I-1159] | ≤ 0.1 µM | < 1 µM
O=C1N[C@H](c2ccccc2Cl)c2c(NC(=O)c3csc4ccccc34)ccnc21 [Compound I-33] | 0.1 to 0.5 µM | 1 to 5 µM
N#Cc1cc(NC(=O)N2C[C@@](O)(C(F)(F)F)c3cc(F)ccc32)c2c(c1)C(=O)N[C@@H]2c1cc(F)ccc1Cl (single isomer, unassigned) [Compound I-2560] | ≤ 0.1 µM | < 1 µM
O=C(Nc1cc(-c2ccnn2CC2CC2)cc2c1C(c1cc(F)ccc1Cl)NC2=O)c1cc(F)cc(C(F)(F)F)c1 (stereo not shown) [Compound I-1038] | ≤ 0.1 µM | < 1 µM
COc1ncccc1-c1cc(NC(=O)c2cc(F)cc(C(F)(F)F)c2)c2c(c1)C(=O)NC2c1cc(F)ccc1Cl (stereo not shown) [Compound I-1091] | ≤ 0.1 µM | < 1 µM
Cc1ccccc1C1NC(=O)c2cc(Br)cc(NC(=O)c3csc4ccccc34)c21 (stereo not shown) [Compound I-29, N-[6-bromo-3-(2-methylphenyl)-1-oxo-2,3-dihydro-1H-isoindol-4-yl]-1-benzothiophene-3-carboxamide] | ≤ 0.1 µM | < 1 µM
[2H]C1([2H])N(C(=O)Nc2cccc3c2[C@H](c2cc(F)ccc2Cl)NC3=O)c2ccc(F)cc2[C@]1(O)C(F)(F)F (single isomer, unassigned) [Compound I-2595] | ≤ 0.1 µM | < 1 µM
O=C1N[C@@H](c2cc(F)ccc2Cl)c2c(NC(=O)N3CCc4ccccc43)cc(-c3ccc4ncnn4c3)cc21 (stereo in doubt) [Compound I-1715] | ≤ 0.1 µM | < 1 µM
O=C(Nc1cc(-c2cnn(C3CC3)c2)cc2c1[C@H](c1cc(F)ccc1Cl)NC2=O)c1cc(F)cc(C(F)(F)F)c1 (single isomer, unassigned) [Compound I-1022] | ≤ 0.1 µM | < 1 µM
O=C1NC(c2cc(F)ccc2Cl)c2c(NC(=O)N3CC(O)c4cc(F)ccc43)cc(-c3cnn(C(F)F)c3)cc21 (stereo not shown) [Compound I-2299] | ≤ 0.1 µM | 1 to 5 µM

Structure (SMILES) | IC50 (H1047R PIK3CA enzyme) | IC50 (cells)
N#Cc1ccc(-c2cc(NC(=O)c3cc(F)cc(C(F)(F)F)c3)c3c(c2)C(=O)NC3c2cc(F)ccc2Cl)cn1 (stereo not shown) [Compound I-928] | ≤ 0.1 µM | < 1 µM
O=C(Nc1cc(NC2COC2)cc2c1[C@H](c1cc(F)ccc1Cl)NC2=O)c1cc(F)cc(C(F)(F)F)c1 [Compound I-814] | ≤ 0.1 µM | < 1 µM
O=C(Nc1cc(-c2cnc3nccn3c2)cc2c1[C@H](c1cc(F)ccc1Cl)NC2=O)c1cc(F)cc(C(F)(F)F)c1 [Compound I-884] | ≤ 0.1 µM | < 1 µM
CNC(=O)c1cc(NC(=O)c2nsc3ccccc23)c2c(c1)C(=O)N[C@@H]2c1ccccc1C [Compound I-164] | 1 to 10 µM | 10 to 36 µM
O=C1NC(c2cc(F)ccc2Cl)c2c(NC(=O)N3CC(O)(C(F)F)c4ccccc43)cccc21 (mixture of isomers) [Compound I-2423] | ≤ 0.1 µM | 1 to 5 µM
N#CCN1CC(c2cc(NC(=O)c3cc(F)cc(C(F)(F)F)c3)c3c(c2)C(=O)NC3c2cc(F)ccc2Cl)C1 (stereo not shown) [Compound I-1158] | ≤ 0.1 µM | < 1 µM
O=C1NC(c2ccccc2C(F)F)c2c(NC(=O)c3nsc4ccccc34)cccc21 (stereo not shown) [Compound I-122] | ≤ 0.1 µM | 1 to 5 µM
O=C(Nc1cc(C2CN(c3ccncn3)C2)cc2c1C(c1cc(F)ccc1Cl)NC2=O)c1cc(F)cc(C(F)(F)F)c1 (stereo not shown) [Compound I-1104] | ≤ 0.1 µM | < 1 µM
N#CC1(COc2cc(NC(=O)N3C[C@@H](O)c4cc(F)ccc43)c3c(c2)C(=O)N[C@@H]3c2cc(F)ccc2Cl)CC1 (single isomer, unassigned) [Compound I-2552] | ≤ 0.1 µM | 1 to 5 µM
N#Cc1cc(NC(=O)N2CC(O)(C(F)(F)F)c3cc(F)ccc32)c2c(c1)C(=O)NC2c1cc(F)ccc1Cl (stereo not shown) [Compound I-2469] | ≤ 0.1 µM | < 1 µM
Cc1ccccc1C1NC(=O)c2cc(CS(C)(=O)=O)cc(NC(=O)c3nsc4ccccc34)c21 (stereo not shown) [Compound I-202, N-(6-((Methylsulfonyl)methyl)-1-oxo-3-(o-tolyl)isoindolin-4-yl)benzo[d]isothiazole-3-carboxamide] | ≤ 0.1 µM | < 1 µM
CC(C)(O)c1cc(NC(=O)c2cc(F)cc(Cl)c2)c2c(c1)C(=O)N[C@H]2c1cc(F)ccc1Cl [Compound I-298] | ≤ 0.1 µM | < 1 µM
CC(C)(C#N)n1cc(-c2cc(NC(=O)N3C[C@@](O)(C(F)(F)F)c4cc(F)ccc43)c3c(c2)C(=O)N[C@@H]3c2cc(F)ccc2Cl)cn1 (single isomer, unassigned) [Compound I-2613] | ≤ 0.1 µM | < 1 µM
O=C(Nc1cc(-c2ccnc3ccccc23)cc2c1C(c1cc(F)ccc1Cl)NC2=O)c1cc(F)cc(C(F)(F)F)c1 (stereo not shown) [Compound I-934] | ≤ 0.1 µM | < 1 µM
O=C(Nc1cc(-n2cccn2)cc2c1[C@H](c1cc(F)ccc1Cl)NC2=O)c1cc(F)cc(C(F)(F)F)c1 [Compound I-1069] | ≤ 0.1 µM | < 1 µM
C[C@@]1(C(=O)Nc2cc(Br)cc3c2[C@H](c2cc(F)ccc2Cl)NC3=O)CCC[C@H](C(F)(F)F)C1 (single isomer, unassigned) [Compound I-2262] | 0.1 to 0.5 µM | 1 to 5 µM
O=C(Nc1cc(-c2cnn(C3CC3)c2)cc2c1C(c1cc(F)ccc1Cl)NC2=O)c1cc(F)cc(C(F)(F)F)c1 (stereo not shown) [Compound I-942] | ≤ 0.1 µM | < 1 µM
O=C(Nc1cc(NC2=NC[C@@H](C(F)(F)F)O2)cc2c1[C@H](c1cc(F)ccc1Cl)NC2=O)c1cc(F)cc(C(F)(F)F)c1 (single isomer, unassigned) [Compound I-2324] | ≤ 0.1 µM | < 1 µM
Cc1ccccc1[C@@H]1NC(=O)c2cc(N)cc(NC(=O)c3nsc4ccccc34)c21 [Compound I-92] | ≤ 0.1 µM | < 1 µM
Cn1cnnc1Nc1cc(NC(=O)c2cc(F)cc(C(F)(F)F)c2)c2c(c1)C(=O)NC2c1cc(F)ccc1Cl (stereo not shown) [Compound I-1083] | ≤ 0.1 µM | 1 to 5 µM
Cn1cc(Nc2cc(NC(=O)c3cc(F)cc(C(F)(F)F)c3)c3c(c2)C(=O)NC3c2cc(F)ccc2Cl)cn1 (stereo not shown) [Compound I-917] | ≤ 0.1 µM | < 1 µM
COCc1cc(NC(=O)c2nsc3ccccc23)c2c(c1)C(=O)NC2c1ccccc1C (stereo not shown) [Compound I-146, N-(6-(Methoxymethyl)-1-oxo-3-(o-tolyl)isoindolin-4-yl)benzo[d]isothiazole-3-carboxamide] | ≤ 0.1 µM | 5 to 10 µM
O=C(Nc1cc(C2CC(O)C2)cc2c1C(c1cc(F)ccc1Cl)NC2=O)c1cc(F)cc(C(F)(F)F)c1 (stereo not shown) [Compound I-1019] | ≤ 0.1 µM | < 1 µM
O=C(Nc1cc(-c2nc3ncccc3[nH]2)cc2c1C(c1cc(F)ccc1Cl)NC2=O)c1cc(F)cc(C(F)(F)F)c1 (stereo not shown) [Compound I-1026] | ≤ 0.1 µM | < 1 µM
O=C(Nc1cc(NC2=NC3(CC3)CO2)cc2c1C(c1cc(F)ccc1Cl)NC2=O)c1cc(F)cc(C(F)(F)F)c1 (stereo not shown) [Compound I-2359] | ≤ 0.1 µM | 1 to 5 µM
